Measured values taken from paper PMC11684029, “Discovery of VU6024578/BI02982816: An mGlu1 Positive Allosteric Modulator with Efficacy in Preclinical Antipsychotic and Cognition Models” (Journal of Medicinal Chemistry, 2024).
Where two headings read alike, the source gives them in different places.

How the values were obtained:
dog mGlu1 = dog mGlu1 (Canis lupus familiaris, UniProt A0A8I3NTE8); test: mGlu1 PAM assay, dog receptor; type: cell-based; conditions: read-out: dog mGlu1 Glumax
human P-gp = target: T1, human P-gp (Homo sapiens, UniProt P08183); test: MDCK-MDR1 permeability/efflux; type: in vitro ADME
T1 construct: expressed in transfected cells; host or cells: MDCK-MDR1
T1 sequence (P08183 whole entry): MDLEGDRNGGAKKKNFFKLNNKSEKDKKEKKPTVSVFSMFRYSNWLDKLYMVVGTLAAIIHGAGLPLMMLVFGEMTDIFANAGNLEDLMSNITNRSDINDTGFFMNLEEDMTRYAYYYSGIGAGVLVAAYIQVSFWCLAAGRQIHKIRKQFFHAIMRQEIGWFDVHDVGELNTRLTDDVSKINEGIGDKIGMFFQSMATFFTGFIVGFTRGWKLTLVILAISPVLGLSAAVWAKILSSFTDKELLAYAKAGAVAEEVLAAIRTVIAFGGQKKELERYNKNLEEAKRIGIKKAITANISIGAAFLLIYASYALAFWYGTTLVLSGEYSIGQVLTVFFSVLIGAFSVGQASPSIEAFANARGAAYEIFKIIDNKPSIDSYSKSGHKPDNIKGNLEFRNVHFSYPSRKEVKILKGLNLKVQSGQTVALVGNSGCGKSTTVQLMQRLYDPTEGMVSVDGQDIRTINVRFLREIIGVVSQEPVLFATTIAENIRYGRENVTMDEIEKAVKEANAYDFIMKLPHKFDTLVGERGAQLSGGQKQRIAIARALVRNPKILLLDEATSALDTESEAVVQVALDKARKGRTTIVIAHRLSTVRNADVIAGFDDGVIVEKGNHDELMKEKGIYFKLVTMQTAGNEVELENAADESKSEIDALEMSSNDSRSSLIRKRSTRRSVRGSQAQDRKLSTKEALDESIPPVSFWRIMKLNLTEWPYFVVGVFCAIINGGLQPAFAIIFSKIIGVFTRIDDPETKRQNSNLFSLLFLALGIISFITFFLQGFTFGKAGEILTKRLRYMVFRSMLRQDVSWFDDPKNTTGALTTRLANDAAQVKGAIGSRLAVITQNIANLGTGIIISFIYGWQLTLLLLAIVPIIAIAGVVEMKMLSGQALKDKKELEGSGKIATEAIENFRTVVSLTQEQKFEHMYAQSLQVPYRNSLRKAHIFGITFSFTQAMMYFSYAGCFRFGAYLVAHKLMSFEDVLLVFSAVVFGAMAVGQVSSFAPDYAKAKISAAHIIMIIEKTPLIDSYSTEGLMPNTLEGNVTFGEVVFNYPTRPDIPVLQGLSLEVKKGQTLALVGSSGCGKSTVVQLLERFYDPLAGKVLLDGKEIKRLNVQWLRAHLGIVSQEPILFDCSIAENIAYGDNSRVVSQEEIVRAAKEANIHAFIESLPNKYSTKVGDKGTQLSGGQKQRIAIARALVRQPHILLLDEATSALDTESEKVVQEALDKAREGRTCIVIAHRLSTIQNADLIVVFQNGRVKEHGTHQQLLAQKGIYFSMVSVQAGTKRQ

P-gp (MDR1) = target: T2, P-gp (MDR1) (Homo sapiens, UniProt P08183); test: MDCK-MDR1 permeability/efflux; type: in vitro ADME; conditions: human
T2 construct: expressed in transfected cells; host or cells: MDCK-MDR1
T2 sequence (P08183 whole entry): as above

satellite PK for rat AHL = type: in vivo; conditions: 2.5-h end of study; for concentration at 2.5 h: brain, oral, read-out: free brain concentration
Description: Here, administration of 0.75 mg/kg IP of amphetamine induced a robust hyperlocomotive state in rats (>1200 beam breaks), which was dose-dependently reversed by oral administration of 19d. […] Considering the longer time point for exposure and the results, mGlu1 has sufficient target coverage and PK/PD is established for this paradigm.[24]

rats = test: adverse events in rats; type: in vivo, rat; conditions: much higher exposures than in dog
[1] = predicted hepatic clearance; type: in vitro ADME, cyno
Description: Across species, 19d had acceptable fraction unbound in both plasma (fu (plasma): 0.03 (human), 0.041 (rat), 0.025 (cyno), 0.039 (dog) and 0.056 (mouse)) and brain (fu (brain): 0.034 (rat) and 0.081 (mouse)).

TNF-alpha = test: Eurofins radioligand binding panel; parameters: species or system human; conditions: agonist radioligand
Description: (§1) Table S1. Eurofins Lead Profiling Screen Data
(§2) This is a radioligand binding panel of 80 targets including GPCRs, ion channels, transporters and nuclear hormones. Biochemical assay results are presented as the percent inhibition of specific […]
(§3) Results showing an inhibition or stimulation higher than 50% are considered to represent significant effect and are highlighted

sigma (non-selective) = test: Eurofins radioligand binding panel; parameters: species or system human; conditions: agonist radioligand
Description: as §1, §2, §3

IV dog PK = type: in vivo; conditions: 0.5 mg/kg IV; for C0: plasma
Description: (§4) Deeper profiling began with IV dog PK (0.5 mg/kg, n = 3 male beagles). […] Was this a mechanism-based toxicity in dog? Could there be dog-specific pharmacology of mGlu1 activation? Were these AEs derived from the 19d chemotype? Could a mGlu1/mGlu5 heterodimer be responsible for the observed AEs? […] In an attempt to address the chemotype question, we evaluated PAM 4 (VU6004909),[8] an early generation rodent in vivo tool compound, for the first time in dog PK. […] of the study with 19d, PAM 4 produced no AEs in dog. […] Therefore, more molecular pharmacology and PK studies as well as additional chemically distinct mGlu1 PAM chemotypes are required to understand the AEs elicited by an mGlu1 PAM in dogs, an otherwise very promising target for the treatment of schizophrenia.

male beagles = test: adverse events in dog PK; type: in vivo; conditions: 0.5 mg/kg IV
Description: as §4

[2] = plasma exposure in satellite mice; type: in vivo; conditions: male, C57BL/6JRj, mouse, sc
Description: We have also employed here event-related potentials (ERPs) and auditory-evoked oscillations, which serve as critical translational biomarkers, to assess the impact of our investigational drug on sensory processing and cognitive functions, providing valuable data on its potential efficacy in treating disorders like schizophrenia. Detailed description of the methodology, setup specifications and recording procedure and analysis of the 40 Hz auditory steady-state response (ASSR) protocol can be found in Schuelert et al.[27] […] Reduced entrainment of gamma oscillation reflects abnormalities in basic sensory registration and processing but is also associated with impaired higher cognitive functions.[32] ASSR can also be reliably impaired preclinically by different NMDA receptor antagonists.[33],[34] […] Abnormalities associated with the filtering or “gating” of sensory information are among the most consistent findings in schizophrenia research.[35] N100 gating deficits also correlated with negative-cognitive deficits dimensions of schizophrenia[36] and can be modeled preclinically with NMDA receptor antagonists.[37]19d reversed N1 sensory gating deficit induced by MK-801 with the highest dose of 10 mg/kg (Figure 12B). Mean plasma exposures in satellite mice after subcutaneous administration of 19d at 0.8, 4, and 10 mg/kg were 187, 1207, and 2490 nM, respectively.
Male C57BL/6JRj mice (12–14 weeks old, 28–30 g, n = 13–19 per treatment arm) (Janvier Laboratories, Le Genest-Saint-Isle, France) were group housed prior to surgery (four animals per cage) and single housed after surgery under standard light-dark conditions (12 h/12 h, lights on 06:00–18:00) with food and tap water available ad libitum. C57BL/6JRj mice were used as they are well suited for neurophysiological cortical network investigations using EEG techniques (Schuelert et al., 2018). […]

plasma protein binding = type: in vitro ADME
Description: The protein binding of each compound was determined in plasma via equilibrium dialysis employing RED Plates (ThermoFisher Scientific, Rochester, NY). Plasma was added to the 96 well plate containing test compound and mixed thoroughly for a final concentration of 5 μM. Subsequently, an aliquot of the plasma-compound mixture was transferred to the cis chamber (red) of the RED plate, with an phosphate buffer (25 mM, pH 7.4) in the trans chamber. The RED plate was sealed and incubated for 4 h at 37 °C with shaking. At completion, aliquots from each chamber were diluted 1:1 with either plasma (cis) or buffer (trans) and transferred to a new 96 well plate, at which time ice-cold acetonitrile containing internal standard (50 ng/mL carbamazepine) (2 volumes) was added to extract the matrices. The plate was centrifuged (3000 rcf, 10 min) and supernatants transferred and diluted 1:1 (supernatant: water) into a new 96 well plate, which was then sealed in preparation for LC/MS/MS analysis. Each compound was assayed in triplicate within the same 96-well plate. Fraction unbound was determined using the following equation [drawing 1]

5-HT2B = 5-HT2B (Homo sapiens, UniProt P41595); test: follow-up functional assay; type: biochemical
5-HT2B, sequence (P41595 whole entry): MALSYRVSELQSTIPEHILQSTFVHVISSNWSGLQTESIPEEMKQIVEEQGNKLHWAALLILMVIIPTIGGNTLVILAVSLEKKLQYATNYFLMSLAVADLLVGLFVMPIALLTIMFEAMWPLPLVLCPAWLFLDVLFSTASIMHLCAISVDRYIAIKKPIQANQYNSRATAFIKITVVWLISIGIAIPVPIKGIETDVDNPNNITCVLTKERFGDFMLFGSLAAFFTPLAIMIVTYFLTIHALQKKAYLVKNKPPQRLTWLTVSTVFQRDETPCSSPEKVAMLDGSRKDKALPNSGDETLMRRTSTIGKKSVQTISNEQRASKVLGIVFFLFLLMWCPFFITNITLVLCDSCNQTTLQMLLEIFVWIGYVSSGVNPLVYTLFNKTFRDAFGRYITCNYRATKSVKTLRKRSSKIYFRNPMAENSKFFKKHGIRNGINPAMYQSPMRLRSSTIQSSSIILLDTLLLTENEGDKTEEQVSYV

dog mGlu1, sequence (A0A8I3NTE8 30-1195): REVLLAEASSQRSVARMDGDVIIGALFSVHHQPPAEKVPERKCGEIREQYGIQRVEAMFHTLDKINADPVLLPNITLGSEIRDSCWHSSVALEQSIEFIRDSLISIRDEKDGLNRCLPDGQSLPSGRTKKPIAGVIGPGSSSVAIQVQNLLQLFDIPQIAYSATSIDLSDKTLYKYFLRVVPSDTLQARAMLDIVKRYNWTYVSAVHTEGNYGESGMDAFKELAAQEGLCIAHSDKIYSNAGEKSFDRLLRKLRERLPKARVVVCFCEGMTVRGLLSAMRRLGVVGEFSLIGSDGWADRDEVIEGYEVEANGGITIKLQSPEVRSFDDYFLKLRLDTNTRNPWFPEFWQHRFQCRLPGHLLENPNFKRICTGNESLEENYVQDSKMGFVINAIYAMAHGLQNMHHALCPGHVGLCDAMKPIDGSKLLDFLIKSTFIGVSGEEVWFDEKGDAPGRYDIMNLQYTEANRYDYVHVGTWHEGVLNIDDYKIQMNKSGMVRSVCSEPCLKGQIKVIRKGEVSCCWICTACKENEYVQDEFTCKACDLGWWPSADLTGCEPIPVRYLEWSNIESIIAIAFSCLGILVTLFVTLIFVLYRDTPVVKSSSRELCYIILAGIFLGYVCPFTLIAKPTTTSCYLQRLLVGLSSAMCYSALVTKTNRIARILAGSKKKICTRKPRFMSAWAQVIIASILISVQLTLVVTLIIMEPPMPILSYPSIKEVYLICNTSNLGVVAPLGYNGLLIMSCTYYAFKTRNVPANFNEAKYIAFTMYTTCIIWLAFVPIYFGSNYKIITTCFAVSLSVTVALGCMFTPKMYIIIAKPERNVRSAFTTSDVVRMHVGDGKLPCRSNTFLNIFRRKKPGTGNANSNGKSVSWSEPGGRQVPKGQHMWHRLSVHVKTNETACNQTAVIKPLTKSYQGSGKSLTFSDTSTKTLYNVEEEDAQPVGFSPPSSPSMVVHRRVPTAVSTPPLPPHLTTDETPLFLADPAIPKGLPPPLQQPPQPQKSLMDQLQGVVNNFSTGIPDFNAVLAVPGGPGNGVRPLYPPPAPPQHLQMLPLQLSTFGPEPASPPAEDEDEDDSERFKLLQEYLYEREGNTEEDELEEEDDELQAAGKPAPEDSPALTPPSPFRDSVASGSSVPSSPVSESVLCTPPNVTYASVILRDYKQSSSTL

For Cn1nc(-c2ccnn2C)cc1CNC(=O)c1cc(-c2ccco2)ccc1Cl [Compound 19d, 2-Chloro-N-((1,2′-dimethyl-1H,2’H-[3,3′-bipyrazol]-5-yl)methyl)-5-(furan-2-yl)benzamide], the Emax (dog mGlu1) was 129%, the “human P-gp substrate, in words” value (human P-gp) was “not a human P-gp substrate” and the Papp (P-gp (MDR1)) was 73 ×10⁻⁶ cm/s. The “free brain concentration over in vitro EC50” value (satellite PK for rat AHL; 3 mg/kg) was about 0.6 fold, the “free brain concentration over in vitro EC50” value (satellite PK for rat AHL; 10 mg/kg) was about 1.2 fold and the concentration at 2.5 h (satellite PK for rat AHL; 3 mg/kg) was 32 nM. The concentration at 2.5 h (satellite PK for rat AHL; 10 mg/kg) was 67 nM, the “adverse events (AEs) in rats” value (rats) was “no AEs” and the “CLhep, cyno” value [1] was 31 mL/min/kg. For the same molecule, the “% Inhibition at 10 µM” value (TNF-alpha) was 2%, the “% Inhibition at 10 µM” value (sigma (non-selective)) was -11% and the CLp (IV dog PK) was 5.4 mL/min/kg. The Vss (IV dog PK) was 0.92 L/kg, the t1/2 (IV dog PK) was 3.6 h and the C0 (IV dog PK; read-out: C0 exposure, total) was 2050 nM. The C0 (IV dog PK; male, beagle, iv, 0.5 mg/kg, read-out: C0 exposure, unbound) was 80 nM, the “adverse events (AEs) in dog” value (male beagles; 0.5 mg/kg) was “GI-salivation and rigidity” and the “time of AEs postdose” value (male beagles; at Cmax) was 1 to 3 min. For the same molecule, the “adverse events (AEs) in dog” value (male beagles; listed as VU6024578/BI02982816, 0.5 mg/kg) was “unanticipated AEs”, the concentration at 60 min ([2]; 0.8 mg/kg s.c.) was 187 nM and the concentration at 60 min ([2]; 4 mg/kg s.c.) was 1210 nM. It also gave a concentration at 60 min ([2]; 10 mg/kg s.c.) of 2490 nM, a fraction unbound at 4 h, 5 μM (plasma protein binding; cynomolgus monkey, pH 7.4, read-out: fu (plasma), cyno) of 0.025 and a fraction unbound at 4 h, 5 μM (plasma protein binding; dog, pH 7.4, read-out: fu (plasma), dog) of 0.039. The fraction unbound at 4 h, 5 μM (plasma protein binding; mouse, pH 7.4, read-out: fu (plasma), mouse) was 0.056 and the “functional activity at 5-HT2B” value (5-HT2B) was “inactive”.
